Laboratory results taken from patent publication US20230091336A1, “CANNABINOID COMPOSITIONS” (priority 2020, published 2023).
“Also recorded” adds a separate entry of the source.

What was measured:
[1] = tested on: SOCE in THP-1 human monocytes; assay: SOCE Fura-2 bioassay in THP-1 cells; conditions: for IC50: Homo sapiens, THP-1, read-out: IC50 SOCE, purified cannabinoids
[2] = tested on: SOCE in RBL-2H3 rat mast cells; assay: SOCE Fura-2 bioassay in RBL-2H3 cells; conditions: Rattus norvegicus, RBL-2H3, read-out: IC50 SOCE, purified cannabinoids, RBL-2H3; Table 5
Method: (§1) Briefly, SOCE inhibition experiments were performed as described in Example 8, using each of the hemp extracts listed below and in Tables 6A and 6B at six concentrations each in each of the five cell types listed above to obtain dose response curves, as shown in FIGS. 11A-11SS. […] All data are averages of three independent runs±SEM. […] Hemp extracts used in FIGS. 11A-11SS are: Sour Space Candy (SSC), Hawaiian Haze (HH), Special Sauce (SS), Suver Haze (SH), White CBG (WCBG), Elektra (ELEK), Cherry Wine (CW), Lifter (LIF), Grape Soda (GS).

[3] = tested on: SOCE in Luva human mast cells; assay: SOCE Fura-2 bioassay in Luva cells; conditions: Homo sapiens, Mast cell, read-out: IC50 SOCE, purified cannabinoids, Luva; Table 5
Method: as §1

UUO mice = assay: Unilateral Ureteral Obstruction (UUO) mouse model of kidney fibrosis; format: in vivo; conditions: for interstitial area increase in UUO kidneys: FIG. 19D; for macrophage infiltration in UUO kidneys (F4/80): FIG. 20B; for α-SMA production in UUO kidneys vs vehicle (immunostaining): FIG. 24B; for urine / water intake / body weight / kidney weight CLK / kidney weight UUO: UUO mice at day 7; for urine / water intake / kidney weight CLK / kidney weight UUO: 10 mg/kg i.p. daily; for body weight: 10 mg/kg i.p. daily day 0 to day 6, n = 5; for magnesium output in urine vs vehicle: 24 h urine, FIG. 18; for kidney weight CLK: contralateral kidney; for phosphorylated Smad3 protein in UUO kidneys (Western blotting) / α-SMA protein in UUO kidneys (Western blotting): cortical kidney tissue, FIG. 23; for collagen type I production in UUO kidneys vs vehicle / fibronectin production in UUO kidneys vs vehicle: immunostaining; for collagen type I production in UUO kidneys vs vehicle: FIG. 21B; for fibronectin production in UUO kidneys vs vehicle: FIG. 22B; for tubular dilation in UUO kidneys: number of dilated tubules per field, FIG. 19B; for kidney weight UUO: obstructed kidney; for tubule loss in UUO kidneys: total number of renal tubules per field, FIG. 19C
Excerpt: The Unilateral Ureteral Obstruction (UUO) model is a mouse model of kidney disease that is associated with and characterized by progressive tubulointerstitial injury and fibrosis. This model can be used to identify many of the molecular and cellular events that occur in progressive kidney fibrosis. […] TRPM7 represents a promising therapeutic target in kidney fibrosis and TRPM7 inhibitors may act as anti-fibrotic pharmacological tools.
C57BL/6 male mice (6 wks weighing 20-25 g) were used in the UUO model. Under isoflurane (3.0% for induction and 1.5% for maintenance) anesthesia, ureteral obstruction was achieved by ligating the left ureter with a 3-0 silk suture through a left lateral incision. Control and experimental groups for these experiments were created as follows:
Group 1: Control (5 mL/kg body weight) 5% ethanol and 5% Tween80 in 0.9% NaCl
Group 2: CBGA (10 mg/kg body weight) 2 mg/mL in 5% ethanol, 5% Tween80 and 0.9% NaCl
Group 3: CBD (10 mg/kg body weight) 2 mg/mL in 5% ethanol, 5% Tween80 and 0.9% NaCl
Group 4: CBGA (10 mg/kg body weight)+CBD (10 mg/kg body weight), 2 mg/mL each in 5% ethanol, 5% Tween80 and 0.9% NaCl
Mice were injected once daily with 10 mg/kg cannabinoids (CBGA, CBD, or both) as well as vehicle control daily beginning immediately after surgery and until Day 6. Mice were euthanized at Day 7 after surgery. Obstructed kidneys (UUO) and non-obstructed contralateral kidneys (CLK) were collected and stored.
FIGS. 19A-19D depict the protection of kidney structure following cannabinoid treatment, as observed during experiments.
Immunohistochemical analysis. To evaluate renal fibrosis in UUO kidneys, immunoreactivities of F4/80 (macrophage marker), collagen type I, fibronectin, and α-smooth muscle actin (α-SMA) were determined using a standard biotin-streptavidin-peroxidase method. The staining-positive areas were calculated by Image J. The threshold was set to automatically compute the positive areas for each staining and the ratio of the positive areas to the whole interstitial area. Number of macrophages (FIG. 20A and FIG. 20B), collagen type I production in stained kidney tissue (FIG. 21A and FIG. 21B), and fibronectin production in stained kidney tissue (FIG. 22A and FIG. 22B) were quantified in UUO kidneys, showing that extracellular matrix production and/or deposition in kidney tissue were also affected with CBGA treatment.

CCCCCc1cc(O)c(C/C=C(\C)CCC=C(C)C)c(O)c1C(=O)O [CBGA, (E)-3-(3,7-dimethylocta-2,6-dien-1-yl)-2,4-dihydroxy-6-pentylbenzoic acid]
IC50 [1]: 2210 nM
IC50 [2]: 5720 nM
IC50 [3]: 270 nM
interstitial area increase in UUO kidneys (UUO mice): inhibited increases in interstitial area
macrophage infiltration in UUO kidneys (F4/80) (UUO mice): inhibited macrophage infiltration
α-SMA production in UUO kidneys vs vehicle (immunostaining) (UUO mice): inhibited
urine (UUO mice): 1.88 ± 0.17 mL
water intake (UUO mice): 4.7 ± 0.2 mL
body weight (UUO mice): 21.55 ± 0.60 g
kidney atrophy / loss of UUO kidney weight vs vehicle (UUO mice; UUO mice day 7, 10 mg/kg daily, FIG. 17B, 10 mg/kg): less kidney atrophy; also recorded: ameliorated the loss of kidney weight
magnesium output in urine vs vehicle (UUO mice; UUO mice day 7): recovered
recovery of body weight loss vs vehicle (UUO mice; UUO mice, 10 mg/kg daily, FIG. 16): faster recovery of body weight loss
kidney weight CLK (UUO mice): 167 ± 0.7 mg
phosphorylated Smad3 protein in UUO kidneys (Western blotting) (UUO mice): suppressed
α-SMA protein in UUO kidneys (Western blotting) (UUO mice): suppressed
collagen type I production in UUO kidneys vs vehicle (UUO mice): inhibited
fibronectin production in UUO kidneys vs vehicle (UUO mice): inhibited
tubular dilation in UUO kidneys (UUO mice): inhibited tubular dilation
kidney weight UUO (UUO mice): 163 ± 0.9^ mg
tubule loss in UUO kidneys (UUO mice): inhibited tubule loss

C=C(C)[C@@H]1CCC(C)=C[C@H]1c1c(O)cc(CCCCC)cc1O [CBD, (1′R,2′R)-5′-methyl-4-penlyl-2′-(prop-1-en-2-yl)-1′,2′,3′,4′-tetrahydro-[1,1′-biphenyl]-2,6-diol]
IC50 [1]: > 50000 nM
combinatory effect when paired with 2.2 μM CBGA ([1]; THP-1, 10 μM cannabinoid + 2.2 μM CBGA, FIG. 10Z): sub-additive
IC50 [2]: > 50000 nM
IC50 [3]: 2530 nM
interstitial area increase in UUO kidneys (UUO mice): inhibited interstitial area increase
macrophage infiltration in UUO kidneys (F4/80) (UUO mice): strongly inhibited macrophage infiltration
α-SMA production in UUO kidneys vs vehicle (immunostaining) (UUO mice): inhibited
urine (UUO mice): 2.01 ± 0.44 mL
water intake (UUO mice): 4.9 ± 0.4 mL
body weight (UUO mice): 22.08 ± 0.45 g
magnesium output in urine vs vehicle (UUO mice; UUO mice day 7): recovered
kidney weight CLK (UUO mice): 175 ± 0.7 mg
phosphorylated Smad3 protein in UUO kidneys (Western blotting) (UUO mice): suppressed
α-SMA protein in UUO kidneys (Western blotting) (UUO mice): suppressed
collagen type I production in UUO kidneys vs vehicle (UUO mice): inhibit
fibronectin production in UUO kidneys vs vehicle (UUO mice): inhibit
tubular dilation in UUO kidneys (UUO mice): inhibited tubular dilation
kidney weight UUO (UUO mice): 172 ± 0.8^ mg
tubule loss in UUO kidneys (UUO mice): inhibited tubule loss
